Measurements published in patent publication US20210369583A1, “COMPOSITIONS FOR PROVIDING SKIN CARE BENEFITS AND METHODS OF USE” (Danisco US Inc., priority 2018, published 2021).

Experiments:
Format in all cases: cell-based
MT-1H (Metallothionein) = assay: Immunostaining of MT-1H in human skin explants, image analysis; settings: after pollutants exposure
Experimental: 59 human skin explants of an average diameter of 14 mm (±1 mm) were prepared on an abdoplasty coming from a person. The explants were kept in survival in BEM culture medium at 37° C. in a humid, 5%-CO2 atmosphere.
The tested products were topically applied on the basis of 2 μl per cm^2 and spread using a small spatula twice a day (morning and evening) on day 0, 1, 2, 3 and 4.
On D4, the explants of the batches ML and PML were placed on the 3D grid with 900 μl of HBSS and placed into the PolluBox® system.
3 mL of the solution <<ML>> (supplemented with 150 μl/ml of NaCl 0.9%) were exposed by vaporization for 1 hour and half, as shown in the figure below.
Metallothionein (MT) is a unique heat-stable protein with a metal binding domain consisting of 20 cysteine residues. […] The immunostaining was performed using an automated slide processing system (Autostainer, Dako) and assessed by microscopical observation. […]
The images analyses were performed on all the images (9 to 12 images) of each batch using the CellD storing software (Olympus Microscopy, Matrix Optics (M)SdnBhd, Taman Mayhang, Maylasia). For each batch of explants, the percentage of the region of interest covered by the staining (stained surface percentage) was determined by image analysis. […]
Analyzed batches: T, P2, ML, P2ML (4 batches, 3 explants/batch, so 12 explants) at day 5 referred to as: TJ5, P2J5, MLJ5, P2MLJ5.

[1] = system: human living skin explant; assay: TUNEL assay (UV-induced DNA damage) on human living skin explants; settings: UV irradiated
Experimental: (§1) human skin explants of an average diameter of 12 mm (±1 mm) were prepared on an abdoplasty coming from a person). The explants were kept in survival in BEM culture medium at 37° C. in a humid, 5%-CO2 atmosphere.
(§2) On day 0 (D0), day 1, day 2 and day 3 (3 hours before irradiation), the tested products were applied topically on surface of skin explants at the rate of 2 mg/cm^2, twice a day for D1 and D2 and once on DO and D3. […] The medium was half renewed (1 ml per well) on day 2.
(§3) On D3, the culture media of all the batches was replaced by HBSS solution (Hank's Balanced Saline Solution; 1 ml per explant). The batches “UV” were irradiated by UVA+ UVB using a UV simulator Vibert Lourmat RMX 3W with a dose of 18 J/cm2 of UVA (4 MED, minimal erythemal dose) and 0.3 J/cm2 of UVB (2 MED). The unirradiated batches were kept in HBSS in the dark. At the end of the irradiation the explants were put back in 2 mL of BEM medium.
(§4) After fixation for 24 hours in buffered formalin, the samples were dehydrated and impregnated in paraffin using a Leica PEARL dehydration automat. The samples were embedded using a Leica EG 1160 embedding station. 5-μm-thick sections were made using a Leica RM 2125 Minot-type microtome, and the sections were mounted on Superfrost® histological glass slides. The frozen samples were cut into 7-μm-thick sections using a Leica CM 3050 cryostat. Sections were then mounted on Superfrost® plus silanized glass slides. The microscopical observations were realized using a Leica DMLB or Olympus BX43 microscope. Pictures were digitized with a numeric DP72 Olympus camera with CellD storing software.
DNA oxidization is a type of damage that can be promoted by reactive oxygen species (ROS), generated by UV exposure. […] The staining was assessed by microscopical observation. Batches analyzed were T, TUV, P1UV, P2UV, P3UV at day 4 also referred to as TJ4, TUVJ4, P1UVJ4, P2UVJ4, P3UVJ4 (T=Control batch non treated non irradiated; TJ4=T at Day 4 (D4); TUV: control batch non treated UV irradiated; TUVJ4=[…] at Day 4; P1J4: product A 4% non irradiated at D4; P2J4: product A 2% non irradiated at D4; P3J4: product A 1% non irradiated at D4; P1UV: product A 4% UV irradiated; P1UVJ4: product A 4% UV irradiated at D4 P2UV: product A 2% UV irradiated; P2UVJ4: product A 2% UV irradiated at D4; P3UV: product A 1% UV irradiated; P3UVJ4: product A 1% UV irradiated at D4

[2] = system: human living skin explant; assay: Immunostaining of carbonylated proteins (FTZ) on human living skin explants
Experimental: as §1, §2, §3, §4
Protein carbonylation is a type of protein oxidation that can be promoted by reactive oxygen species (ROS), generated by UV exposure. FTZ marker assay was conducted by immunostaining in the living epidermis of human skin explant as follows: Carbonylated proteins were stained on frozen sections with the anti-carbonylated proteins probe (fluorescein-5-thiosemicarbazid-FTZ) (Lifetechnologies, Ref. F-121) diluted at 0.5 μM in MES-Na+ and incubated for 30 minutes in the dark and at room temperature. The staining was observed by epifluorescence and assessed by microscopical observations. Batches analyzed were T, TUV, P1UV, P2UV, P3UV at day 4 also referred to as TJ4, TUVJ4, P1UVJ4, P2UVJ4, P3UVJ4

[3] = system: human living skin explant; assay: Cell viability of human living skin explants (UV study); settings: day 4
Experimental: as §1, §2, §3, §4

O=C(O)[C@@H]1CCCN1 [Combination P4, L-Proline]
effect on pollutant-induced MT-1H (MT-1H (Metallothionein)): seems to strongly reduce the effect of the pollutants | activity against UV-induced DNA damage [1]: strong inhibition of the increase of DNA damage | effect on UV-induced carbonylated proteins ([2]; UV irradiated): inhibited the formation of carbonylated proteins | Carbonylated proteins (FTZ), variation vs TJ4 ([2]; non irradiated, day 4): ↔ (indicates no variation) | Cell Viability, variation vs TUVJ4 ([3]; UV irradiated): ↔ (indicates no variation) | Cell Viability, variation vs TJ4 ([3]; non irradiated): ↔ (indicates no variation)
